The source of these data is article PMC9635080, “Design, synthesis, in vitro, and in silico biological evaluations of coumarin-indole hybrids as new anti-α-glucosidase agents” (BMC Chemistry, 2022).

Series [1] addresses T1, yeast α-glucosidase (Saccharomyces cerevisiae, UniProt P53341).
T1 construct: purchased Sigma-Aldrich
Put plainly: In vitro α-glucosidase inhibition assay. It is filed as biochemical. To be noted: for potency relative to acarbose: fold more potent than acarbose, from IC50 values; for inhibitory activity against α-glucosidase (in words): SAR discussion. On the procedure:
Appropriate enzyme concentration was obtained in potassium phosphate buffer (pH 6.8, 50 mM), and coumarin-indole hybrids 4a–m were dissolved in DMSO (10% final concentration). […] The percentage of enzyme inhibition (% Inhibition) for each sample was calculated by using the following formula: %Inhibition=[(Abs control-Abs sample)/Abs control]×100
IC50 values were calculated from non-linear regression curve using by the Logit method.

In series [2] the target is T1, yeast α-glucosidase. Nature of the series: Kinetic study (Lineweaver–Burk plot) on α-glucosidase. It is filed as biochemical. On the procedure: To determine the mechanism of α-glucosidase inhibition of the newly synthesized compounds, the kinetic study was performed on compound 4d as representative compound. The relative velocity of the α-glucosidase was determined on four increasing concentrations of the p-nitrophenyl glucopyranoside as substrate. […] Then, the Lineweaver-Burke plot was depicted using the reciprocal of velocity and substrate concentration (Fig. 2a).
Fig. 2 Kinetic study of compound 4d into α-glucosidase. a The Lineweaver–Burk plot in the absence and presence of different concentrations of compound 4d; b The secondary plot between Km and various concentrations of compound 4d
Appropriate enzyme concentration was obtained in potassium phosphate buffer (pH 6.8, 50 mM), and coumarin-indole hybrids 4a–m were dissolved in DMSO (10% final concentration). The potassium phosphate buffer (135 µL), various concentrations of the target compounds 4a–m (20 µL), and prepared enzyme solution (20 µL) were added to the 96-well plate and the later mixture was incubated for 10 min at 37 °C. […] Finally, the change in absorbance of the final mixture was measured at 405 nm by using spectrophotometer (Gen5, Power wave xs2, BioTek, America). […] The percentage of enzyme inhibition (% Inhibition) for each sample was calculated by using the following formula: %Inhibition=[(Abs control-Abs sample)/Abs control]×100

Usually IC50 stands for the point on the concentration scale where inhibition reaches its midpoint. A high value points to a need for much substance. For orientation: melting point means the temperature of the solid-liquid transition. What is called Ki is the equilibrium dissociation constant of an inhibitor or competing ligand from its target. Read a low Ki as a stronger hold on the target.

Bounds are passed on as bounds.

T1 sequence (P53341 whole entry): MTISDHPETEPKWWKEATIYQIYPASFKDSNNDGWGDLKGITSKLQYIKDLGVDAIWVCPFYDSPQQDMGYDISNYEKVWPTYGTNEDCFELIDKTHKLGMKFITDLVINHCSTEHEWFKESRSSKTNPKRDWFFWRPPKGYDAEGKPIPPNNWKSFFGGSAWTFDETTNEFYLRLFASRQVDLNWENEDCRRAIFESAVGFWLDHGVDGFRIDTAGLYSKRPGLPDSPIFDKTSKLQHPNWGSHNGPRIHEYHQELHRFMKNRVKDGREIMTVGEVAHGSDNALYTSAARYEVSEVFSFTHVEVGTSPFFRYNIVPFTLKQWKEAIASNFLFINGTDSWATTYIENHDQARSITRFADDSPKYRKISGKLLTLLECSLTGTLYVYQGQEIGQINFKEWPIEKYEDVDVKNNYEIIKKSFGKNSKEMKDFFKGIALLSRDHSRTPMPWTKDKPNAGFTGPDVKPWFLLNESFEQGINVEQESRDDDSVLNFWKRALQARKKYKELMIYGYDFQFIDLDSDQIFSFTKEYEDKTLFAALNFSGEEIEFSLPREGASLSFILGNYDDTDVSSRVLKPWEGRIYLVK

For the compound `O=c1oc2ccccc2c(O)c1C(c1ccccc1)c1c[nH]c2ccccc12` (stereo not drawn) [Compound 4a, 3-((1H-indol-3-yl)(phenyl)methyl)-4-hydroxy-2H-chromen-2-one], the melting point is 231 to 233 °C. Besides, on yeast α-glucosidase [1], the IC50 amounted to 118 ± 3.1 µM and the “potency relative to acarbose” value was “around sixfold”.

`Cc1ccc(C(c2c(O)c3ccccc3oc2=O)c2c[nH]c3ccccc23)cc1` (stereo not drawn) [Compound 4b, 3-((1H-indol-3-yl)(p-tolyl)methyl)-4-hydroxy-2H-chromen-2-one] displayed a melting point of 269 to 271 °C. On yeast α-glucosidase [1], this compound registered a concentration for half-maximal inhibition (IC50) of 167.5 ± 0.8 µM.

Take `COc1ccc(C(c2c(O)c3ccccc3oc2=O)c2c[nH]c3ccccc23)cc1` (stereo not drawn) [Compound 4c, 3-((1H-indol-3-yl)(4-methoxyphenyl)methyl)-4-hydroxy-2H-chromen-2-one]: the melting point was 246 to 248 °C. On yeast α-glucosidase [1], this compound yielded a half-inhibitory concentration (IC50) of 170 ± 2.1 µM.

`O=c1oc2ccccc2c(O)c1C(c1cccc(Oc2ccccc2)c1)c1c[nH]c2ccccc12` (stereo not drawn) [Compound 4d, 3-((1H-indol-3-yl)(3-phenoxyphenyl)methyl)-4-hydroxy-2H-chromen-2-one] displayed a melting point of 183 to 185 °C. At yeast α-glucosidase [1], half-maximal inhibition (IC50) required 116 ± 0.7 µM and the “potency relative to acarbose” value is “around sixfold”. The compound further displayed a Ki on yeast α-glucosidase [2] of 148 µM. The type of inhibition result on yeast α-glucosidase [2] (Lineweaver–Burk plot, inhibitor 0, 28, 58 and 116 µM) is reported as “competitive type of inhibition”.

Compound `O=c1oc2ccccc2c(O)c1C(c1cccc(O)c1)c1c[nH]c2ccccc12` (stereo not drawn) [Compound 4e, 4-Hydroxy-3-((3-hydroxyphenyl)(1H-indol-3-yl)methyl)-2H-chromen-2-one] came in with a melting point of 200 to 202 °C. In addition, on yeast α-glucosidase [1], the IC50 is above 750 µM and the “inhibitory activity against α-glucosidase (in words)” value (“inhibitory activity” below) was “loss of effect”.

The compound `O=c1oc2ccccc2c(O)c1C(c1ccc(O)cc1)c1c[nH]c2ccccc12` (stereo not drawn) [Compound 4f, 4-Hydroxy-3-((4-hydroxyphenyl)(1H-indol-3-yl)methyl)-2H-chromen-2-one] showed a melting point of 286 to 288 °C. For the same compound, on yeast α-glucosidase [1], the concentration for half-maximal inhibition (IC50) was above 750 µM and the “inhibitory activity” value was “loss of effect”.

Turning to `O=c1oc2ccccc2c(O)c1C(c1cccc(F)c1)c1c[nH]c2ccccc12` (stereo not drawn) [Compound 4g, 3-((3-Fluorophenyl)(1H-indol-3-yl)methyl)-4-hydroxy-2H-chromen-2-one], the melting point was 222 to 224 °C. This compound also yielded an IC50 at yeast α-glucosidase [1] of 174 ± 2.3 µM.

`O=c1oc2ccccc2c(O)c1C(c1ccc(F)cc1)c1c[nH]c2ccccc12` (stereo not drawn) [Compound 4h, 3-((4-Fluorophenyl)(1H-indol-3-yl)methyl)-4-hydroxy-2H-chromen-2-one] gave a melting point of 243 to 245 °C. Also, at yeast α-glucosidase [1], half-maximal inhibition (IC50) required 474.9 ± 2.6 µM and the “inhibitory activity” value was “dramatically decrease in inhibitory activity”.

`O=c1oc2ccccc2c(O)c1C(c1cccc(Cl)c1)c1c[nH]c2ccccc12` (stereo not drawn) [Compound 4i, 3-((3-Chlorophenyl)(1H-indol-3-yl)methyl)-4-hydroxy-2H-chromen-2-one] returned a melting point of 205 to 207 °C. In addition, at yeast α-glucosidase [1], the IC50 was above 750 µM and the “inhibitory activity” value is listed as “loss of effect”.

The compound `O=c1oc2ccccc2c(O)c1C(c1ccc(Cl)cc1)c1c[nH]c2ccccc12` (stereo not drawn) [Compound 4j, 3-((4-Chlorophenyl)(1H-indol-3-yl)methyl)-4-hydroxy-2H-chromen-2-one] gave a melting point of 235 to 237 °C. The midpoint of inhibition against yeast α-glucosidase [1], the IC50, lay at 230 ± 2.3 µM.

The compound `O=c1oc2ccccc2c(O)c1C(c1cccc(Br)c1)c1c[nH]c2ccccc12` (stereo not drawn) [Compound 4k, 3-((3-Bromophenyl)(1H-indol-3-yl)methyl)-4-hydroxy-2H-chromen-2-one] showed a melting point of 212 to 214 °C. Further, on yeast α-glucosidase [1], the IC50 was above 750 µM and the “inhibitory activity” value is recorded as “did not show activity”.

For the compound `O=c1oc2ccccc2c(O)c1C(c1ccccc1[N+](=O)[O-])c1c[nH]c2ccccc12` (stereo not drawn) [Compound 4l, 3-((1H-indol-3-yl)(2-nitrophenyl)methyl)-4-hydroxy-2H-chromen-2-one], the melting point lay within 240 to 242 °C. Also, at yeast α-glucosidase [1], the IC50 was above 750 µM and the “inhibitory activity” value was “completely abolished anti-α-glucosidase activity”.

Consider `O=c1oc2ccccc2c(O)c1C(c1cccc([N+](=O)[O-])c1)c1c[nH]c2ccccc12` (stereo not drawn) [Compound 4m, 3-((1H-indol-3-yl)(3-nitrophenyl)methyl)-4-hydroxy-2H-chromen-2-one], for which the melting point lay in the range of 198 to 200 °C. 180.5 ± 1.4 µM corresponded to half-maximal inhibition on yeast α-glucosidase [1] (IC50).
